As usually defined, the IC50 is the concentration at which inhibition is half-maximal.

Molecules are shown by their SMILES.

What all share (type): cell-based
The subject of one test is A375 cells. The test is described as follows: Antiproliferative MTT assay. The note with it: Homo sapiens, A-375, 48 h, mean ± S.D. of two experiments. The method, then:
(§1) The effect of final target compounds over A375 and SK-MEL-5 was performed using reported procedures (detailed procedure is located in the Supplementary Information page 51s). […]
(§2) Evaluation of the Antiproliferative Activity Against A375 and SK-MEL-5
(§3) A375 and SK-MEL-5 cells were purchased from American Type Culture Collection (ATCC, Ro ckv ille, MD, USA) and maintained in Dulbecco’s modified eagle medium (DMEM, Welgene, Daegu, Republic of Korea) supplemented with 10% fetal bovine serum (FBS, Welgene, Daegu, Republic of Korea) and 1% penicillin/streptomycin (Welgene, Daegu, Republic of Korea) in a hu midified atmo sphere with 5% CO2 at 37 °C. Both cells were taken from culture substrate with 0.05% trypsin-0.02% EDTA and plated at a density of 5 × 10^3 cells/well in 96 well plates and then incubated at 37 °C fo r 24 h in a hu midified atmo sphere with 5% CO2 prior to treatment with various concentrations (3-fold serial dilution, 12 points) of the tested compounds. The cells were incubated for 48 h after treatment with the test compounds. The cell viability was assessed by the conventional 3-(4,5-dimethylthiazol-2-yl)-2,5-diphenyltetrazolium bromide (MTT) reduction assay. MTT assays were carried out with CellTiter 96® (Promega) according to the manufacturer’s instructions. The absorbance at 590 nm was recorded using EnVision 2103 (Perkin Elmer; Bo ston , MA, USA). The IC50 values were calculated using GraphPad Prism 4.0
(In general: Tetrazolium dyes change colour on reduction, which living cells bring about.)

The subject of another test is SK-MEL-5 cells. As to the kind of experiment: Antiproliferative MTT assay. The note with it: Homo sapiens, 48 h, mean ± S.D. of two experiments. The method, then: as §1, §2, §3
In the next test the test system is SK-MEL-28. The test is described as follows: NCI 60 cell line screen. As to conditions: Homo sapiens; SK-MEL-28, Melanoma; read-out: Percent growth. The method in brief:
(§4)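 48 h continuous exposure, five doses, highest 10 µM; cells in RPMI 1640 + 5% FBS at 37 °C, 5% CO2. TCA fixation, sulforhodamine B staining, A515.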

The next test relates to COLO 205. The test is described as follows: NCI 60 cell line screen. As to conditions: Homo sapiens; COLO 205, Colon Cancer; read-out: Percent growth. The method in brief: as §4
The subject of another test is 786-0. As to the kind of experiment: NCI 60 cell line screen. As to conditions: Homo sapiens; 786-0, Renal Cancer; read-out: Percent growth. The method in brief: as §4
The next test has as its system A549/ATCC. The test is described as follows: NCI 60 cell line screen. The note with it: Homo sapiens, Non-Small Cell Lung Cancer, read-out: Percent growth. The method in brief: as §4
A further test relates to MDA-MB-435. As to the kind of experiment: NCI 60 cell line screen. The note with it: Homo sapiens; MDA-MB-435, Melanoma; read-out: Percent growth. The method in brief: as §4
Another test concerns HCC-2998. The test is described as follows: NCI 60 cell line screen. As to conditions: Homo sapiens; HCC-2998, Colon Cancer; read-out: Percent growth. The method in brief: as §4
The next test relates to LOX IMVI. As to the kind of experiment: NCI 60 cell line screen. The note with it: Homo sapiens, Melanoma, read-out: Percent growth. In outline: as §4

As to `O=S(=O)(NCCNc1nccc(-n2cnc3ccccc32)n1)c1ccccc1` [12a, N-(2-((4-(1H-benzo [d]imidazol-1-yl)pyrimidin-2-yl)amino)ethyl)benzenesulfonamide], the values for the 50% inhibitory concentration (IC50) in the test with A375 cells and in the test on SK-MEL-5 cells were 12.8 ± 0.41 µM and 20.4 ± 0.86 µM, respectively. Moreover, the activity at 10 µM in the test on SK-MEL-28 stood at 108%; with COLO 205, 101%; with 786-0, 103%; in the test on A549/ATCC, 104%; with MDA-MB-435, 109%; in the test on HCC-2998 it was 106%. In the test on LOX IMVI, the activity at 10 µM turned out to be 95%.

Take `O=S(=O)(NCCNc1nccc(-n2cnc3ccccc32)n1)c1ccc(F)cc1` [12b, N-(2-((4-(1H-benzo [d]imidazol-1-yl)pyrimidin-2-yl)amino)ethyl)-4-fluorobenzenesulfonamide]: the values for the IC50 in the test on A375 cells and in the test with SK-MEL-5 cells were 10.5 ± 0.22 µM and 15.6 ± 0.37 µM, respectively. Besides, the activity at 10 µM worked out at 101% in the test on SK-MEL-28; 102% with COLO 205; 102% with 786-0; 91.3% with A549/ATCC; 97.7% in the test on MDA-MB-435; 104% with HCC-2998. In addition, the activity at 10 µM with LOX IMVI stood at 93.2%.

`O=S(=O)(NCCNc1nccc(-n2cnc3ccccc32)n1)c1ccc(Cl)cc1` [12c, N-(2-((4-(1H-benzo [d]imidazol-1-yl)pyrimidin-2-yl)amino)ethyl)-4-chlorobenzenesulfonamide]: the concentration for half-maximal inhibition (IC50) was 11 ± 0.36 µM with A375 cells and 17.6 ± 0.49 µM with SK-MEL-5 cells. Also, the activity at 10 µM with SK-MEL-28 came out at 101%; in the test with COLO 205, 104%; in the test with 786-0 it was 99%; in the test on A549/ATCC, 103%; in the test with MDA-MB-435, 100%; in the test on HCC-2998, 101%. The activity at 10 µM with LOX IMVI is 93.5%.

Consider `O=S(=O)(NCCNc1nccc(-n2cnc3ccccc32)n1)c1ccc(Br)cc1` [12d, N-(2-((4-(1H-benzo [d]imidazol-1-yl)pyrimidin-2-yl)amino)ethyl)-4-bromobenzenesulfonamide], for which the results for the 50% inhibitory concentration (IC50) with A375 cells and with SK-MEL-5 cells were 11.8 ± 0.71 µM and 19.7 ± 0.51 µM, respectively. The activity at 10 µM in the test with SK-MEL-28 stood at 108%; in the test on COLO 205, 107%; with 786-0, 103%; in the test with A549/ATCC, 100%; in the test with MDA-MB-435, 108%; in the test with HCC-2998, 103%. Moreover, the activity at 10 µM in the test on LOX IMVI was 99.1%.

On to `COc1ccc(S(=O)(=O)NCCNc2nccc(-n3cnc4ccccc43)n2)cc1` [12f, N-(2-((4-(1H-benzo [d]imidazol-1-yl)pyrimidin-2-yl)amino)ethyl)-4-methoxy benzenesulfonamide], for which the values for the half-inhibitory concentration (IC50) in the test on A375 cells and with SK-MEL-5 cells were 12.6 ± 0.44 µM and 18.7 ± 0.69 µM, respectively. In addition, the activity at 10 µM was 97.9% in the test with SK-MEL-28; 99.8% in the test on COLO 205; 93% in the test with 786-0; 94.6% in the test with A549/ATCC; 96.6% with MDA-MB-435; 99.7% in the test on HCC-2998. Further, the activity at 10 µM in the test on LOX IMVI worked out at 91.7%.

Regarding `O=S(=O)(NCCCNc1nccc(-n2cnc3ccccc32)n1)c1ccccc1` [12h, N-(3-((4-(1H-benzo [d]imidazol-1-yl)pyrimidin-2-yl)amino)propyl)benzenesulfonamide], the IC50 in the test on A375 cells was 9.26 ± 0.16 µM; in the test with SK-MEL-5 cells it was 11.3 ± 0.29 µM. For the same molecule, the activity at 10 µM was found to be 105% with SK-MEL-28; 102% in the test on COLO 205; 98.8% with 786-0; 97.6% with A549/ATCC; 95.5% in the test with MDA-MB-435; 107% in the test with HCC-2998. Besides, the activity at 10 µM with LOX IMVI worked out at 91.7%.

For the molecule `O=S(=O)(NCCCNc1nccc(-n2cnc3ccccc32)n1)c1ccc(Cl)cc1` [12j, N-(3-((4-(1H-benzo [d]imidazol-1-yl)pyrimidin-2-yl)amino)propyl)-4-chloro benzenesulfonamide], the IC50 amounted to 10.4 ± 0.24 µM in the test on A375 cells and 12.9 ± 0.72 µM with SK-MEL-5 cells. For the same molecule, the activity at 10 µM in the test with SK-MEL-28 came to 108%; in the test with COLO 205, 110%; in the test with 786-0 it was 103%; in the test with A549/ATCC, 99%; in the test on MDA-MB-435, 95.5%; in the test on HCC-2998 it was 108%. In the test on LOX IMVI, the activity at 10 µM stood at 107%.

Take `O=S(=O)(NCCCNc1nccc(-n2cnc3ccccc32)n1)c1ccc(Br)cc1` [12k, N-(3-((4-(1H-benzo [d]imidazol-1-yl)pyrimidin-2-yl)amino)propyl)-4-bromo benzenesulfonamide]: the IC50 with A375 cells came to 12 ± 0.47 µM; in the test with SK-MEL-5 cells it was 13.5 ± 0.39 µM. Besides, the activity at 10 µM in the test with SK-MEL-28 came out at 102%; with COLO 205 it was 108%; with 786-0, 91.7%; in the test on A549/ATCC, 95%; with MDA-MB-435, 92.6%; in the test on HCC-2998 it was 112%. In the test on LOX IMVI, the activity at 10 µM came out at 94.6%.

For the molecule `COc1ccc(S(=O)(=O)NCCCNc2nccc(-n3cnc4ccccc43)n2)cc1` [12m, N-(3-((4-(1H-benzo [d]imidazol-1-yl)pyrimidin-2-yl)amino)propyl)-4-methoxy benzenesulfonamide], the IC50 is 13.1 ± 0.27 µM in the test on A375 cells and 14.6 ± 0.71 µM in the test on SK-MEL-5 cells. Besides, the activity at 10 µM in the test on SK-MEL-28 was found to be 106%; in the test on COLO 205, 108%; with 786-0 it was 95.9%; in the test on A549/ATCC, 106%; in the test on MDA-MB-435, 98.7%; with HCC-2998 it was 111%. In addition, the activity at 10 µM with LOX IMVI was 93.4%.

Source of the values: publication PMC8508980, “Design, Synthesis and Anticancer Profile of New 4-(1H-benzo[d]imidazol-1-yl)pyrimidin-2-amine-Linked Sulfonamide Derivatives with V600EBRAF Inhibitory Effect” (International Journal of Molecular Sciences, 2021).
